Data from publication PMC12400318 (Biochemical Journal, 2025).

Legend:
[1] = target: T1, T. melanesiensis CtfAB (T. mel CtfAB; WT-CtfAB) (Thermosipho melanesiensis, UniProt A6LM39+A6LM40, A6LM39:F42T/A6LM39:S45C); assay: X-ray crystal structure, […] Å; assay type: binding
T1 construct: gene Tmel_1136; co-expressed in E. coli Rosetta 2(DE3)pLysS; N-terminal 6xHis on CtfA, untagged CtfB; subunits Mr 23-25 kDa; heterotetramer (two CtfA-CtfB heterodimers) in crystals

[2] = target: T2, T. melanesiensis CtfAB (T. mel CtfAB; WT-CtfAB) (Thermosipho melanesiensis, UniProt A6LM39+A6LM40, A6LM39:E46D); design: gene Tmel_1136; details: acetate from crystallisation buffer; pocket next to residue 46
[3] = target: T3, T. melanesiensis CtfAB (T. mel CtfAB; WT-CtfAB) (Thermosipho melanesiensis, UniProt A6LM39+A6LM40); design: gene Tmel_1136; details: rate-equation constant of substrate B (acetate) in the forward fit, not a separate inhibition assay; 100 mM Tris-HCl, 40 mM MgCl2, 5% glycerol, pH 7.5, 65 °C
T3 sequence (A6LM40 1-217): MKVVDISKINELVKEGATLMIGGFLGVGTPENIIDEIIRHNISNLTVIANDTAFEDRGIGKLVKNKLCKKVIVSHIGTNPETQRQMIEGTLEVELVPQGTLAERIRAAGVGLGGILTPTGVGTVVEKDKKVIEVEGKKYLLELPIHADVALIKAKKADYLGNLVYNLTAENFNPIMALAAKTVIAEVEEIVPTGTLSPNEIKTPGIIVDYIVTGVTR
T3 sequence (A6LM39 1-214): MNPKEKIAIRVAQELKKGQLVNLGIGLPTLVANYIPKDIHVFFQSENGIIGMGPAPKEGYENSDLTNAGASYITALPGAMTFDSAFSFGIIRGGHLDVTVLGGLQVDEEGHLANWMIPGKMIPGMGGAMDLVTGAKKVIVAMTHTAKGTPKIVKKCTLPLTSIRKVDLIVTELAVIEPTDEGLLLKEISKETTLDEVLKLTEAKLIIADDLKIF

[4] = target: T4, T. melanesiensis CtfAB (T. mel CtfAB; WT-CtfAB) (Thermosipho melanesiensis, UniProt A6LM39+A6LM40, A6LM39:E46S); details: acetate from crystallisation buffer; second acetate in place of the catalytic glutamate carboxylate
T4 construct: gene Tmel_1136

[5] = target: T2, T. melanesiensis CtfAB (T. mel CtfAB; WT-CtfAB); assay: hydrolase activity assay; assay type: biochemical; design: gene Tmel_1136; co-expressed in E. coli Rosetta 2(DE3)pLysS; N-terminal 6xHis on CtfA, untagged CtfB; subunits Mr 23-25 kDa; heterotetramer (two CtfA-CtfB heterodimers) in crystals; details: CoA hydrolase instead of transferase; acetate not required
[6] = target: T3, T. melanesiensis CtfAB (T. mel CtfAB; WT-CtfAB); assay: acetoacetyl-CoA Mg-enolate consumption at […] nm; global ping-pong bi-bi fit with inhibition; assay type: biochemical; design: gene Tmel_1136; co-expressed in E. coli Rosetta 2(DE3)pLysS; N-terminal 6xHis on CtfA, untagged CtfB; subunits Mr 23-25 kDa; heterotetramer (two CtfA-CtfB heterodimers) in crystals; details: read-out: Ki,Q
purified protein [7] = substrate: CC(=O)O; assay: purified protein; details: forward reaction, co-substrate acetoacetyl-CoA (0.025-0.4 mM), 100 mM Tris-HCl, 40 mM MgCl2, 5% glycerol, pH 7.5, 65 °C
purified protein [8] = substrate: CC(=O)SCCNC(=O)CCNC(=O)[C@H](O)C(C)(C)COP(=O)(O)OP(=O)(O)OC[C@H]1O[C@@H](n2cnc3c(N)ncnc32)[C@H](O)[C@@H]1OP(=O)(O)O; assay: purified protein; assay type: biochemical, Thermosipho melanesiensis; details: reverse reaction, co-substrate acetoacetate (3.75-18.75 mM), 100 mM Tris-HCl, 40 mM MgCl2, 5% glycerol, pH 7.5, 65 °C
purified protein [9] = substrate: CC(=O)CC(=O)SCCNC(=O)CCNC(=O)[C@H](O)C(C)(C)COP(=O)(O)OP(=O)(O)OC[C@H]1O[C@@H](n2cnc3c(N)ncnc32)[C@H](O)[C@@H]1OP(=O)(O)O; assay: purified protein; assay type: biochemical, Thermosipho melanesiensis; details: forward reaction, co-substrate acetate (18.75-375 mM), 100 mM Tris-HCl, 40 mM MgCl2, 5% glycerol, pH 7.5, 65 °C, abstract prints 135 μM
purified protein [10] = substrate: CC(=O)CC(=O)O; assay: purified protein; assay type: biochemical, Thermosipho melanesiensis; details: reverse reaction, co-substrate acetyl-CoA (0.033-0.4 mM), 100 mM Tris-HCl, 40 mM MgCl2, 5% glycerol, pH 7.5, 65 °C
[11] = target: the molecule itself; assay: crystal structure; hanging drop, purified co-expressed CtfAB 5-6 mg/mL in 10 mM MOPS, 5% glycerol, 50 mM Na2SO4, 50 mM NaCl, 1 mM DTT, pH 7.5; reservoir 100 mM Na acetate pH 4.9-5.5, 6-10% PEG 3350; F42T/S45C co-crystal with 5-10 mM acetyl-CoA; space group P4(1)2(1)2

T1 sequence (A6LM39 entry or part of it F42T/S45C, one chain of several): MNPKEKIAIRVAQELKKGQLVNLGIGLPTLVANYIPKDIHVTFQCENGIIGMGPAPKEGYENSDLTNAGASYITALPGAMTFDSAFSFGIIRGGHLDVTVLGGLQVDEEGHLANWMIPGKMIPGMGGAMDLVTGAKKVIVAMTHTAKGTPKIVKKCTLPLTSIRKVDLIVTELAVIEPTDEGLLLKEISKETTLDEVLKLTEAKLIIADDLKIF
T2 sequence (A6LM39 entry or part of it E46D, one chain of several): as the sequence (A6LM39 entry or part of it F42T/S45C, one chain of several) above, with T42F, C45S, E46D counted along it
T4 sequence (A6LM39 1-214 E46S, one chain of several): as the sequence (A6LM39 entry or part of it F42T/S45C, one chain of several) above, with T42F, C45S, E46S counted along it

CC(=O)O [acetate] was tested, and the “X-ray crystal structure, 1.9 Å” value ([1]; acetate from crystallisation buffer (100 mM Na acetate), two molecules near E46, acetyl-CoA also bound) was “difference density for two acetate molecules in the CtfAB F42TS45C-CoA structure”, the “X-ray crystal structure, 2.2 Å” value [2] was “Acetate molecules were identified in every CtfAB structure in the substrate-binding pocket” and the “Ki,B” value [3] was 24.7 ± 16.6 mM. For the same molecule, the “X-ray crystal structure, 2.6 Å” value [4] was “a second acetate molecule binds in the space normally occupied by the catalytic glutamate”.

For CC(=O)CC(=O)SCCNC(=O)CCNC(=O)[C@H](O)C(C)(C)COP(=O)(O)OP(=O)(O)OC[C@H]1O[C@@H](n2cnc3c(N)ncnc32)[C@H](O)[C@@H]1OP(=O)(O)O [acetoacetyl-CoA], the hydrolase activity assay [5] was “converted the transferase into a hydrolase, with activity confirmed on acetoacetyl-CoA”.

With CC(=O)SCCNC(=O)CCNC(=O)[C@H](O)C(C)(C)COP(=O)(O)OP(=O)(O)OC[C@H]1O[C@@H](n2cnc3c(N)ncnc32)[C@H](O)[C@@H]1OP(=O)(O)O [acetyl-CoA] the “X-ray crystal structure, 1.9 Å” value ([1]; co-crystal with 5-10 mM acetyl-CoA, site in CtfB, pantetheine part partly disordered) was “A co-crystal of the mutant CtfB F42T/S45C and acetyl-CoA was grown” and the Ki [6] was 1.27 ± 0.276 mM.

B1: T. melanesiensis CtfAB (T. mel CtfAB; WT-CtfAB) (Thermosipho melanesiensis BI429) (protein)
chain 1: MKVVDISKINELVKEGATLMIGGFLGVGTPENIIDEIIRHNISNLTVIANDTAFEDRGIGKLVKNKLCKKVIVSHIGTNPETQRQMIEGTLEVELVPQGTLAERIRAAGVGLGGILTPTGVGTVVEKDKKVIEVEGKKYLLELPIHADVALIKAKKADYLGNLVYNLTAENFNPIMALAAKTVIAEVEEIVPTGTLSPNEIKTPGIIVDYIVTGVTR
chain 2: MNPKEKIAIRVAQELKKGQLVNLGIGLPTLVANYIPKDIHVFFQSENGIIGMGPAPKEGYENSDLTNAGASYITALPGAMTFDSAFSFGIIRGGHLDVTVLGGLQVDEEGHLANWMIPGKMIPGMGGAMDLVTGAKKVIVAMTHTAKGTPKIVKKCTLPLTSIRKVDLIVTELAVIEPTDEGLLLKEISKETTLDEVLKLTEAKLIIADDLKIF
notes: co-expressed in E. coli Rosetta 2(DE3)pLysS; N-terminal 6xHis on CtfA, untagged CtfB; subunits Mr 23-25 kDa; heterotetramer (two CtfA-CtfB heterodimers) in crystals
B1 gave a Km (purified protein [7]) of 84700 ± 15600 µM, a Km (purified protein [8]) of 322 ± 41 µM and a Km (purified protein [9]) of 138 ± 28.8 µM. The Km (purified protein [10]) was 1655 ± 331 µM.

B2: Thermosipho melanesiensis CtfAB heterodimer (His6-CtfA with CtfB), wild type (complex)
chain 1: MKVVDISKINELVKEGATLMIGGFLGVGTPENIIDEIIRHNISNLTVIANDTAFEDRGIGKLVKNKLCKKVIVSHIGTNPETQRQMIEGTLEVELVPQGTLAERIRAAGVGLGGILTPTGVGTVVEKDKKVIEVEGKKYLLELPIHADVALIKAKKADYLGNLVYNLTAENFNPIMALAAKTVIAEVEEIVPTGTLSPNEIKTPGIIVDYIVTGVTR
chain 2: MNPKEKIAIRVAQELKKGQLVNLGIGLPTLVANYIPKDIHVFFQSENGIIGMGPAPKEGYENSDLTNAGASYITALPGAMTFDSAFSFGIIRGGHLDVTVLGGLQVDEEGHLANWMIPGKMIPGMGGAMDLVTGAKKVIVAMTHTAKGTPKIVKKCTLPLTSIRKVDLIVTELAVIEPTDEGLLLKEISKETTLDEVLKLTEAKLIIADDLKIF
notes: CoA transferase subunit A (CtfA) of Thermosipho melanesiensis, Tmel_1136, WP_012057350; as the chain of m1; 3-oxoacid CoA-transferase subunit B (CtfB) of Thermosipho melanesiensis, Tmel_1135, WP_012057349; as the chain of m2; Used for the self-association of the CtfAB heterodimer into a heterotetramer and higher oligomers; also called T. mel CtfAB; WT-CtfAB; not shown: His6, N-terminal, kept
B2 was tested, and the “stoichiometry N” value [11] was 2 heterodimers in the heterotetramer.
